How the values were obtained:
[1] = Freezing point depression of DMSO solutions by DSC; assay type: physicochemical; conditions: DSC scan
Description: Using PerkinElmer Instruments PYRIS Diamond Differential Scanning calorimetry (“DSC”), samples were cooled to −40° C. and heated to 40° C. at 8° C. per minute for screening purposes.

[2] = Effect of pH on insulin solubility in DMSO (visual, A630); assay type: physicochemical; conditions: pH memory of 7, some lower-concentration solutions e.g. 10 mg/mL
Description: These solutions were lyophilized to dryness ([…]) using a conservative cycle and reconstituted to various nominal concentrations in DMSO. Solubility was measured by visual inspection for clarity and turbidity via A630.

Compound | temperature of crystallization (Tc) [1] [°C] | period to slowly dissolve to a clear solution [2]
C[S+](C)[O-] [neat DMSO, dimethylsulfoxide] | ~18 | –
insulin | – | about 24 hours
